# In patent US5389663A, “1-(1h-1,2,4-triazole-yl)-2-propanol compounds” (Takeda Chemical Industries, Ltd., priority 1991, dated 1995):
# Tested on: Candida albicans IFO 0583
# Experiment: Paper disc agar diffusion, growth inhibition zone, Candida albicans IFO 0583
# Type: cell-based
# Conditions: Candida albicans, IFO0583, 48 h, Table 5; Medium A, 28° C., two-day culture, 1000 μ/ml, 8 mm disc; read-out: Diameter of growth-inhibition zone
# Procedure: Evaluation of the antifungal activities of the compound of formula (I) was conducted by the following method: a sheet of filter paper disc (manufactured by Toyo Seisakusho, 8 mm in diameter) soaked in a […] solution of a compound of formula (I) in methanol was placed on an agar plate containing various fungi, which was incubated at 28° C. for two days, and the diameter of the growth inhibition zone around the filter paper disc was measured. The following culture media were used: A: yeast nitrogen base agar medium (pH 7.0) B: Sabouraud agar medium
# cpd. No. (Medium A, 28° C., two-day culture)
row,Structure (SMILES),zone of inhibition at 1000 µg/mL [mm]
1,"CCCCNS(=O)(=O)C(C)=C(Cn1cncn1)c1ccc(F)cc1F (single isomer, unassigned) [Compound 32, N-butyl-3-(2,4-difluorophenyl)-4-(1H-1,2,4-triazol-1-yl) -2-butene-2-sulfonamide]",12
2,"CC(=C(Cn1cncn1)c1ccc(F)cc1F)S(=O)(=O)N(C)C (single isomer, unassigned) [Compound 34, N,N-dimethyl-3-(2,4-difluorophenyl)-4-(1H-1,2,4-triazol-1-yl)-2-butene-2-sufonamide]",15
3,C[C@@H](SNC1CCCCC1)[C@](O)(Cn1cncn1)c1ccc(F)cc1F [Compound 5],35
4,"C[C@@H](SN1CCOCC1)[C@](O)(Cn1cncn1)c1ccc(F)cc1F [Compound 7, N-[(2R,3R)-3-(2,4-difluorophenyl)-3-hydroxy-4-(1H-1,2,4-triazol-1-yl) -2-butylsulfenyl]morpholine]",33
5,"C[C@@H](SN1CCN(C(=O)OC(C)(C)C)CC1)[C@](O)(Cn1cncn1)c1ccc(F)cc1F [Compound 17, N-tert-butoxycarbonyl-4-[(2R,3R)-3-(2,4-difluorophenyl)-3-hydroxy-4-(1H-1,2,4-triazol-1-yl)-2-butylsulfenyl]piperazine]",40
6,C[C@@H]([S+]([O-])N1CCN(C(=O)OC(C)(C)C)CC1)[C@](O)(Cn1cncn1)c1ccc(F)cc1F (some centres unmarked) [Compound 18],37
7,"C[C@H]([C@](O)(Cn1cncn1)c1ccc(F)cc1F)S(=O)(=O)N1CCN(C(=O)OC(C)(C)C)CC1 [Compound 19, 1-tert-butoxycarbonyl-4-[(2R,3R)-3-(2,4-difluorophenyl)-3-hydroxy-4-(1H-i,2,4-triazol-1-yl) -2-butylsulfonyl]piperazine]",40
8,"C[C@H]([C@](O)(Cn1cncn1)c1ccc(F)cc1F)S(=O)(=O)N1CCNCC1 [Compound 20, 1-[(2R,3R)-3-(2,4-difluorophenyl)-3hydroxy-4-(1H-2,4-triazol-1-yl)-2-butylsulfonyl]piperazine]",22
9,"C[C@H]([C@](O)(Cn1cncn1)c1ccc(F)cc1F)S(=O)(=O)Nc1ccc(Br)cc1 [Compound 22, N-(4-bromophenyl)-[(2R, 3R)-3-(2,4-difluorophenyl)-3-hydroxy-4-(1H-1,2,4-triazol-1-yl)-2-butane]sulfonamide]",30
10,"C[C@H]([C@](O)(Cn1cncn1)c1ccc(F)cc1F)S(=O)(=O)N1CCN(C(=O)c2ccc(C(F)(F)F)cc2)CC1 [Compound 24, 1-[(2R,3R)-3-(2,4-difluorophenyl)-3-hydroxy-4-(1H-1,2,4-triazol-1-yl)-2-butylsulfonyl]-4-(4-trifluoromethylbenzoyl)piperazine]",37
11,"CC(=O)N1CCN(S(=O)(=O)[C@H](C)[C@](O)(Cn2cncn2)c2ccc(F)cc2F)CC1 [Compound 25, 1-acetyl-4-[(2R,3R)-3-(2,4-difluorophenyl)-3-hydroxy-4-(1H-1,2,4-triazol-1-yl)-2-butylsulfonyl]piperazine]",30
12,"C[C@H]([C@](O)(Cn1cncn1)c1ccc(F)cc1F)S(=O)(=O)N1CCN(Cc2nncn2C)CC1 [Compound 26, 1-[(2R,3R)-3-(2,4-difluorophenyl)-3-hydroxy-4-(1H-1,2,4-triazol-1-yl)-2-butylsulfonyl]-4-(4-methyl-4H-1,2,4-triazol-3-ylmethyl) piperazine]",20
13,"C[C@H]([C@](O)(Cn1cncn1)c1ccc(F)cc1F)S(=O)(=O)N1CCCC1 [Compound 28, 1-[(2R,3R)-3-(2,4-difluorophenyl)-3-hydroxy-4-(1H-1,2,4-triazol-1-yl)-2-butylsulfonyl]pyrrolidine]",50
14,"C[C@H]([C@](O)(Cn1cncn1)c1ccc(F)cc1F)S(=O)(=O)NCc1nncn1C [Compound 41, N-(4-methyl-4H-1,2,4-triazol-3-ylmethyl)-[(2R,3R)-3-(2,4-difluorophenyl)-3-hydroxy-4-(1H-1,2,4-triazol-1-yl)-2-butane]sulfonamide]",23
15,"CCC(C)n1ncn(-c2ccc(N3CCN(S(=O)(=O)[C@H](C)[C@](O)(Cn4cncn4)c4ccc(F)cc4F)CC3)cc2)c1=O (stereo partly drawn) [Compound 42, 1-[4-[2-(2-butyl)-2,3-dihydro-3-oxo-4H-1,2,4-triazol-4-yl]phenyl]-4-[(2R,3R)-3-(2,4-difluorophenyl)-3-hydroxy-4-(1H-1,2,4-triazol-1-yl)-2-butanesulfonyl]piperazine]",40
16,"CCC(C)n1ncn(-c2ccc(N3C=CN(S(=O)(=O)[C@H](C)[C@](O)(Cn4cncn4)c4ccc(F)cc4F)CC3)cc2)c1=O (stereo partly drawn) [Compound 43, 1-[4-[2-(2-butyl)-2,3-dihydro-3-oxo-4H-1,2,4-triazol-4-yl]phenyl]-4-[(2R,3R)-3-(2,4-difluorophenyl)-3-hydroxy-4-(1H-1,2,4-triazol-1-yl)-2-butanesulfonyl]-1,2,3,4-tetrahydropyrazine]",35
17,"C[C@H]([C@](O)(Cn1cncn1)c1ccc(F)cc1F)S(=O)(=O)N1CCN(c2ccc(-n3cnn(CC(F)(F)F)c3=O)cc2)CC1 [Compound 44, 1-[4-[2-(2,2,2-trifluoroethyl)-2,3-dihydro-3-oxo-4H-1,2,4-triazol-4-yl]phenyl]-4-[(2R,3R)-3-(2,4-difluorophenyl)-3-hydroxy-4-(1H-1,2,4-triazol-1-yl)-2-butanesulfonyl]piperazine]",33
18,"C[C@H]([C@](O)(Cn1cncn1)c1ccc(F)cc1F)S(=O)(=O)N1CCN(c2ncccn2)CC1 [Compound 45, 1-[(2R,3R)-3-(2,4-difluorophenyl)-3-hydroxy-4-(1H-1,2,4-triazol-1-yl)-2-butanesulfonyl]-4-(2-pyrimidinyl) piperazine]",50
19,"C[C@H]([C@](O)(Cn1cncn1)c1ccc(F)cc1F)S(=O)(=O)N(C)Cc1ccccc1 [Compound 47, N-benzyl-N-methyl-[(2R,3R)-3-(2,4-difluorophenyl)-3-hydroxy-4-(1H-1,2,4-triazol-1-yl)-2-butane]sulfonamide]",45
20,C[C@@H](NS(=O)(=O)c1ccc(F)cc1F)[C@](O)(Cn1cncn1)c1ccc(F)cc1F [Compound 50],45
21,C[C@@H](NS(=O)(=O)c1ccc(N)cc1)[C@](O)(Cn1cncn1)c1ccc(F)cc1F [Compound 52],35
22,C[C@@H](NS(=O)(=O)CCCCl)[C@](O)(Cn1cncn1)c1ccc(F)cc1F [Compound 56],30
23,C[C@@H](N1CCCS1(=O)=O)[C@](O)(Cn1cncn1)c1ccc(F)cc1F [Compound 57],35
24,"COc1ccc(CNS(=O)(=O)[C@H](C)[C@](O)(Cn2cncn2)c2ccc(F)cc2F)cc1OC [Compound 60, N-(3,4-dimethoxybenzyl)-[(2R,3R)-3-(2,4-difluorophenyl)-3-hydroxy-4-(1H-1,2,4-triazol-1-yl)-2-butane]sulfonamide]",35
25,"CCCCCCCCCCCCN(C)S(=O)(=O)[C@H](C)[C@](O)(Cn1cncn1)c1ccc(F)cc1F [Compound 61, N-dodecyl-N-methyl-[(2R,3R)-3-(2,4-difluorophenyl)-3-hydroxy-4-(1H-1,2,4-triazol-1-yl)-2-butane]sulfonamide]",18
26,"C#CCN(C)S(=O)(=O)[C@H](C)[C@](O)(Cn1cncn1)c1ccc(F)cc1F [Compound 62, N-methyl-N-(2-propinyl)-[(2R,3R)-3-(2,4-difluorophenyl)-3-hydroxy-4-(1H-1,2,4-triazol-1-yl)-2-butane]sulfonamide]",45
27,"C[C@H]([C@](O)(Cn1cncn1)c1ccc(F)cc1F)S(=O)(=O)N(C)CC#CC(C)(C)C [Compound 63, N-(4,4-dimethyl-2-pentynyl)-N-methyl-[(2R,3R)-3-(2,4-difluorophenyl)-3-hydroxy-4-(1H-1,2,4-triazol-1-yl)-2-butane]sulfonamide]",40
28,"C[C@H]([C@](O)(Cn1cncn1)c1ccc(F)cc1F)S(=O)(=O)N(C)Cc1ccc(C(F)(F)F)cc1 [Compound 66, N-methyl-N-(4-trifluoromethylbenzyl)-[(2R,3R)-3-(2,4-difluorophenyl)-3-hydroxy-4-(1H-1,2,4-triazol-1-yl)-2-butane]sulfonamide]",42
29,"C[C@H]([C@](O)(Cn1cncn1)c1ccc(F)cc1F)S(=O)(=O)N(C)Cc1ccc(C(F)(F)F)cc1F [Compound 67, N-(2-fluoro-4-trifluoromethylbenzyl)-N-methyl-[(2R,3R)-3-(2,4-difluorophenyl)-3-hydroxy-4-(1H-1,2,4-triazol-1-yl)-2-butane]sulfonamide]",42
30,"C[C@H]([C@](O)(Cn1cncn1)c1ccc(F)cc1F)S(=O)(=O)N(C)C/C=C/C#CC(C)(C)C [Compound 68, N-[(E)-6,6-dimethyl-2-hepten-4-ynyl]-N-methyl-[(2R,3R)-3-(2,4-difluorophenyl)-3-hydroxy-4-(1H-1,2,4-triazol-1-yl)-2-butane]sulfonamide]",42

# Same assay, conditions: Table 5; Medium A, 28° C., two-day culture, 1000 μ/ml, 8 mm disc
row,Structure (SMILES),Diameter of growth-inhibition zone [mm]
1,"CC(=C(Cn1cncn1)c1ccc(F)cc1F)S(=O)(=O)N1CCN(c2ccccc2)CC1 (single isomer, unassigned) [Compound 30, 1-[3-(2,4-difluorophenyl)-4-(1H-1,2,4-triazol-1-yl)-2-buten-2-ylsulfonyl]-4-phenylpiperazine]",12
2,"CC(=C(Cn1cncn1)c1ccc(F)cc1F)S(=O)(=O)N1CCN(c2ccccc2)CC1 (single isomer, unassigned) [Compound 31, 1-[3-(2,4-difluorophenyl)-4-(1H-1,2,4-triazol-1-yl)-2-buten-2-ylsulfonyl]-4-phenylpiperazine]",35
